Experimental data: patent US20040120938A1, “Ingestible compositions comprising antibacterial agents” (The University of Bath, priority 1998, published 2004)
Like-named read-outs stand apart in the source and are kept apart here.

Key:
[1] = test system: E. coli; experiment: Xanthine oxidase derived species on cell viability at a range of oxygen concentrations (Test 8(c)); format: cell-based
Description: E. coli were cultured as described above. Aliquots were taken and incubated with a reaction system consisting of bovine Xanthine oxidase (XO) (53.2 μgml^−1), nicotinamide adenine dinucleotide in reduced form (NADH) (300 μM), sodium nitrite, (NaNO2) 1 mM and oxygen at a range of concentrations. Desired oxygen concentrations were generated by delivery into the system of a mixture of oxygen and nitrogen in appropriate proportions and determined using a Clark-type O2 electrode. This reaction was followed at 37° C. for 30 min with mixing before an aliquot was taken and plated onto agar and incubated in a warm room at 37° C. Viable cells formed colonies on the agar and were counted. Viable cell counts were performed in triplicate and the results expressed as a percentage viable count in each case related to a non enzyme control of the same oxygen concentration. […] The range of oxygen tensions used covers those in which XO has previously been considered to be active, namely superoxide generation (21% O2 saturation) and nitric oxide production (0% O2 saturation). A certain amount of killing is seen at both of these extremes as compared with control samples. However, it is only at an intermediate oxygen concentration that the greatest amount of killing is observed. […] Corresponding data obtained in respect of S. enteritidis indicated a peak killing oxygen concentration of 0% for that cell type.
Replacement of NADH in the above method by 100 μM hypoxanthine, with a sodium nitrite concentration of 2.5 μM led to slightly higher peak killing oxygen concentrations (6.4% for E. coli and 1.5% for S. enteritidis).

[2] = test system: E. coli; experiment: Peroxynitrite scavenger and XO systems on bacterial growth curves in nutrient broth (Test 8(d)); format: cell-based
Description: E. coli were seeded into nutrient broth at 2.10^7 cell ml^−1 and incubated at 37° C. under atmospheric air conditions (that is, 21% oxygen saturation). Four separate test samples of volume 1 ml were prepared by addition at 1 hour of incubation as follows:
1 Peroxynitrite at concentration 100 μM.
2 Peroxynitrite at 100 μM and quercetin (peroxynitrite scavenger) at 100 μM.
3 Xanthine oxidase (53.2 μg) and xanthine at 100 μM.
4 Xanthine oxidase (53.2 μg) and NADH at 100 μM.
Corresponding controls were also prepared, and the growth curves generated over time determined by monitoring absorbance.

[3] = test system: Lactobacillus casei 6375; experiment: Bacterial growth rate by optical density, 96 well plate (Tests 8(f), 8(g)); format: cell-based; conditions: Lacticaseibacillus casei, 6375; Lactobacillus casei; bolus at beginning of logarithmic growth; read-out: Half maximal concentration ONOO -
Description: (§1) Bacteria were seeded into nutrient broth (NB) and grown over night at 37° C. The culture was then counted and normalised to give a final cell concentration of 1.8×10^7 cells well^−1 into the wells of a 96 well plate in fresh nutrient broth. The optical density of each well was monitored every 15 minutes as a measure of the growth rate of each bacterial species. Growth curves were generated for each species and the maximal rate of growth (logarithmic phase) was measured. Cells were treated to a range of experimental conditions in which the growth rate of cells was related to a control of untreated cells. The results were expressed as a percentage of the growth rate of the control cells.
(§2) (i) At a fixed concentration of hypoxanthine (100 μM) a range of purified XO protein concentrations were added at time 0 minutes. The optical density was followed and the growth rate calculated.
(§3) (ii) The growth rate was also measured in relation to the concentration of hypoxanthine, using 30 μg of XO with cells seeded as described above.
(§4) (iv) The effect of XO hypoxanthine addition was measured on the growth rate of a range of bacterial species with 30 […] XO at varying hypoxanthine concentrations using cells seeded as described above.

[4] = test system: Staphylococcus aureus 6751; experiment: as above; format: cell-based
Description: as §1, §2, §3, §4

[5] = test system: S. enteritidis; experiment: Peroxynitrite effect on cell viability (Test 8(a)); format: cell-based; conditions: Salmonella enterica
Description: Cells cultured as described above were diluted to suitable working concentrations (10^4-10^5 Cells Ml^−1) in sterile phosphate buffered saline (PBS). ONOO^− at a range of concentrations from […] to 0.01 μm was added as a bolus dose to cells and incubated at room temperature for ten minutes. Aliquots were taken from the cell cultures and plated on to nutrient agar and incubated in a warm room at 37° C. overnight. Viable cells formed colonies on the agar and were counted. The number of colonies formed was related to an untreated control and a graph of the results is shown in FIG. 1, which illustrates the effect of ONOO^− on cell viability.

[6] = test system: contaminants of semi-skimmed bovine milk (postulated Lactobacilli sp.); experiment: Peroxynitrite addition to semi-skimmed bovine milk, colony forming units (Test 8(b)); format: cell-based; conditions: 4° C., four days
Description: Commercially produced bovine milk was purchased in semi-skimmed form. Aliquots were taken on day one of experimentation and plated onto nutrient agar and grown overnight at 37° C. The number of colonies formed following incubation was counted. The remaining milk was divided into three portions after removal of those aliquots. No peroxynitrite was added to the first portion, which was the control. A single bolus dose of 100 μM ONOO^− was added to the second portion on day one, and the third portion was treated by addition of a daily bolus dose of 100 μM ONOO^−. The portions were stored during the four days of the test at a temperature of 4° C. Each day, aliquots were taken from each portion and cultured overnight at 37° C. for viable count determination. […] Although the contaminants were not formally identified, it was postulated that they included at least Lactobacilli sp., that being a cell type often present in milk.

[7] = test system: Escherichia coli NCTC 86; experiment: Peroxynitrite effect on cell viability, viable colony count (Test 8(a)); format: cell-based; conditions: E. coli; for IC50: Escherichia coli, NCTC86
Description: To obtain cells used in this test, the infective bacterial strain Escherichia coli NCTC 86 (E. coli) was cultured on nutrient agar at 37° until colony formation occurred, usually overnight. This stock culture was used for subsequent experiments including sub-culturing in nutrient broth and plated onto agar weekly. Experimental cultures of E. coli were set up overnight in nutrient broth from single colonies on an agar plate. Cells were harvested and counted using a standard curve of known absorbance at 470 nm against viable cell count. Peroxynitrite was generated by the method of Crow et al, Biochem. 34, p. 3544-3552 (1995). […] The concentration of ONOO^− formed was measured using an absorption coefficient of 1670 M^−1 cm^−1 in a spectrophotometer at a wavelength of 303 nm. Solutions of different concentrations for use in (a) below were obtained by dilution of the product solution using PBS. Cells cultured as described above were diluted to suitable working concentrations (10^4-10^5 Cells Ml^−1) in sterile phosphate buffered saline (PBS). ONOO^− at a range of concentrations from […] to 0.01 μm was added as a bolus dose to cells and incubated at room temperature for ten minutes. Aliquots were taken from the cell cultures and plated on to nutrient agar and incubated in a warm room at 37° C. overnight. Viable cells formed colonies on the agar and were counted. The number of colonies formed was related to an untreated control and a graph of the results is shown in FIG. 1, which illustrates the effect of ONOO^− on cell viability.

[8] = test system: S. enteritidis; experiment: Xanthine oxidase derived species on cell viability at a range of oxygen concentrations (Test 8(c)); format: cell-based
[9] = test system: nitric oxide (NO) release; experiment: NO release from pure bovine xanthine oxidase with nitrite and NADH under hypoxia (Tests 1-3); format: biochemical
Description: The production of nitric oxide in the following tests and examples was analysed using an ozone chemiluminescence assay in a continuous flow apparatus (Sievers NOA 280) that allows the real time analysis of NO production. The apparatus was modified to allow a constant stream of nitrogen to flow into the reaction chamber. Chemiluminescence data were collected by a data acquisition system; the mean NO produced in parts per billion (ppb) was calculated from readings taken every second and shown as ppb or mV.
Progress curves, of molar production of NO against time, were calculated by taking into account the gas flow and the mean level of NO. Molar production of NO was expressed as ppb/sec or mV/sec. Reactions were carried out in a final volume of 1 ml at 37° C. in an atmosphere of <1% oxygen (Stathkelvin combination needle oxygen electrode, Diamond General Corp.).
The release of nitric oxide (NO) from a composition including pure bovine xanthine oxidase under hypoxia conditions was studied. The samples studied comprised reduced β-Nicotinamide adenine dinucleotide (NADH) and nitrite (NO2^−) and pure bovine xanthine oxidase.
Bovine xanthine oxidase was diluted with PBS as indicated in Table 1 below to give 300 μl of enzyme mixture. The enzyme mixture (300 μl) was mixed with 700 μl of a substrate mixture to give an assay volume of 1 ml. The substrate mixture comprised nitrite which was added to the assay to give a concentration of 1 mM and NADH which was added to give a concentration of 0.3 mM. Where, for example in Tests 2 to 4 below, additional components are added to the sample, the amount of PBS is adjusted accordingly to give an assay volume of 1 ml. The sample was placed in the reaction vessel of the NO determination apparatus under a nitrogen atmosphere and the generation of NO was measured and the results calculated as a steady state rate in mV/s.
Using the method described above in respect of Test 1, the effect of the variation in the concentration of NADH on the production of NO was investigated. 4 mM NADH was diluted with PBS to give the relevant concentration.
Using the method described above in respect of Test 1, the effect of the variation in the concentration of nitrite on the production of NO was investigated. As for Test 1, the concentration of NADH was 0.3 mM. 1M nitrite (or 100 mM nitrite, where appropriate for low concentrations) was diluted with PBS to give the relevant concentration.

With O=c1[nH]c(=O)c2[nH]cnc2[nH]1 [xanthine] the “killing using xanthine instead of hypoxanthine” value ([1]; XO system, cell type not specified) was “More limited killing”.
O=c1c(O)c(-c2ccc(O)c(O)c2)oc2cc(O)cc(O)c12 [quercetin] was tested, and the “effect on peroxynitrite killing” value ([2]; 100 μM with peroxynitrite 100 μM) was “clear effect in reducing killing”.
In the case of O=NOO [Peroxynitrite], the IC50 [3] is reported as 55000 nM, the IC50 ([4]; 6751, Staphylococcus aureus, bolus at beginning of logarithmic growth, read-out: Half maximal concentration ONOO -) is reported as 290000 nM and the “killing (growth curve)” value ([2]; 100 μM added at 1 hour, 21% oxygen saturation) is reported as “strong killing”. The IC50 ([5]; S. enteritidis, similar conditions, read-out: IC50 (concentration that reduces viability to 50% of control viable count)) was 2030 nM, the IC50 ([5]; Salmonella enteritidis, value matches Test 8(a) viability IC50, read-out: Half maximal concentration ONOO -) was 2000 nM and the “colony forming units (CFU) in milk compared to control” value ([6]; daily bolus dose of 100 μM, p<=0.01, also below single dose p<=0.05) was “reduced the CFU significantly below control”. For the same compound, the “colony forming units (CFU) in milk compared to control” value ([6]; single bolus dose of 100 μM on day one, p<=0.01) was “reduced the CFU significantly”, the “effect on cell viability (viable count, FIG. 1)” value ([7]; range of concentrations, ten minutes) was “profound inhibitory effect” and the IC50 ([7]; bolus dose, ten minutes at room temperature in PBS, read-out: IC50 (concentration that reduces viability to 50% of control viable count)) was 1400 nM. It also gave an IC50 ([7]; value matches Test 8(a) viability IC50, read-out: Half maximal concentration ONOO -) of 1400 nM.
In the case of xanthine oxidoreductase [XOR], the growth inhibition ([4]; Staphylococcus, hypoxanthine 100 μM, range of XO concentrations) is reported as “less marked growth inhibition”, the “killing above about 8% oxygen” value [8] is reported as “little or no killing” and the “peak killing oxygen concentration” value ([8]; XO, NADH, NaNO2) is reported as 0%. The killing ([8]; oxygen concentration about 21%) was “about 10%”, the “killing above about 8% oxygen” value ([1]; E. coli) was “little or no killing” and the “oxygen concentration of most effective killing” value ([1]; E. coli, XO 53.2 μg/ml, NADH 300 μM, NaNO2 1 mM, 37° C., 30 min) was “approximately 3 % of saturation”. For the same compound, the killing ([1]; E. coli, oxygen concentration about 21%) was “about 5%”, the NO release ([9]; XOR 21.4 μg, nitrite 0 mM, NADH 0.3 mM) was 0.00 mV/s and the NO release ([9]; XOR 21.4 μg, nitrite 1 mM, NADH 0.3 mM) was 53.75 mV/s. It also gave an NO release ([9]; XOR 21.4 μg, nitrite 5 mM, NADH 0.3 mM) of 184.8 mV/s, an NO release ([9]; XOR 21.4 μg, nitrite 10 mM, NADH 0.3 mM) of 378.10 mV/s and an NO release ([9]; XOR 21.4 μg, nitrite 25 mM, NADH 0.3 mM) of 407.55 mV/s. The NO release ([9]; XOR 21.4 μg, nitrite 50 mM, NADH 0.3 mM) was 474.05 mV/s, the NO release ([9]; XOR 53.5 μg, NADH 0.00 mM) was 0.00 mV/s and the NO release ([9]; XOR 53.5 μg, NADH 0.10 mM) was 30.45 mV/s. For the same compound, the NO release ([9]; XOR 53.5 μg, NADH 0.25 mM) was 66.80 mV/s, the NO release ([9]; XOR 53.5 μg, NADH 0.50 mM) was 92.55 mV/s and the NO release ([9]; XOR 53.5 μg, NADH 1.00 mM) was 103.35 mV/s. For the same compound, the NO release ([9]; XOR 53.5 μg, NADH 2.00 mM) was 109.20 mV/s, the NO release ([9]; XOR 107.0 μg, NADH 0.00 mM) was 0.00 mV/s and the NO release ([9]; XOR 107.0 μg, NADH 0.10 mM) was 74.45 mV/s. It also gave an NO release ([9]; XOR 107.0 μg, NADH 0.25 mM) of 142.70 mV/s, an NO release ([9]; XOR 107.0 μg, NADH 0.50 mM) of 192.65 mV/s and an NO release ([9]; XOR 107.0 μg, NADH 1.00 mM) of 230.05 mV/s. It also gave an NO release ([9]; XOR 107.0 μg, NADH 2.00 mM) of 264.65 mV/s, an NO release ([9]; XOR protein in assay 21.4 μg, 1 mM nitrite, 0.3 mM NADH) of 50.05 mV/s and an NO release ([9]; XOR protein in assay 53.5 μg, 1 mM nitrite, 0.3 mM NADH) of 76.35 mV/s. The NO release ([9]; XOR protein in assay 107.0 μg, 1 mM nitrite, 0.3 mM NADH) was 128.55 mV/s, the NO release ([9]; XOR protein in assay 160.5 μg, 1 mM nitrite, 0.3 mM NADH) was 187.20 mV/s and the NO release ([9]; XOR protein in assay 214.0 μg, 1 mM nitrite, 0.3 mM NADH) was 225.75 mV/s. For the same compound, the “optimum pH for the production of NO under the hypoxic conditions” value ([9]; hypoxic conditions) was about 5.5.
